For the test, the system named is L1210 leukemia ip in BDF1 mice, survival T/C. Nature of the test: NCI In Vivo Anticancer Drug Screen. Data for tumor model L1210 Leukemia (intraperitoneal) in B6D2F1 (BDF1) mice. The note with it: endpoint: mean survival time, higher = longer survival. The procedure, abridged:
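Read-out is survival time, reported as the treated-group measurement over the vehicle-control measurement.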

Where [1] appears, read: dose: 100.0 mg/kg/injection, schedule: Q01DX009 (ip), vehicle: saline with Tween-80.
Where [2] appears, read: dose: 200.0 mg/kg/injection, schedule: Q01DX009 (ip), vehicle: saline with Tween-80.
Setting [3] is: dose: 100.0 mg/kg/injection, schedule: Q01DX001 (ip), vehicle: carboxymethylcellulose (CMC).
Setting [4] is: dose: 200.0 mg/kg/injection, schedule: Q01DX001 (ip), vehicle: carboxymethylcellulose (CMC).
The mark [5] stands for this setting: dose: 400.0 mg/kg/injection, schedule: Q01DX001 (ip), vehicle: carboxymethylcellulose (CMC).
[6] abbreviates: dose: 200.0 mg/kg/injection, schedule: Q01DX009 (ip), vehicle: saline.
Setting [7] is: dose: 400.0 mg/kg/injection, schedule: Q01DX009 (ip), vehicle: saline.
The mark [8] stands for this setting: dose: 12.5 mg/kg/injection, schedule: Q04DX002 (ip), vehicle: saline.
The mark [9] stands for this setting: dose: 25.0 mg/kg/injection, schedule: Q04DX002 (ip), vehicle: saline.
[10] abbreviates: dose: 100.0 mg/kg/injection, schedule: Q01DX001 (ip), vehicle: saline.
Setting [11] is: dose: 100.0 mg/kg/injection, schedule: Q01DX009 (ip), vehicle: saline.
Where [12] appears, read: dose: 200.0 mg/kg/injection, schedule: Q01DX001 (ip), vehicle: saline.
Where [13] appears, read: dose: 400.0 mg/kg/injection, schedule: Q01DX001 (ip), vehicle: saline.

Several values for one entry are separate records, joined by “and”; a condition that tells them apart may be missing. Equal values may be shown once. Inconclusive results and toxic doses are left out.

This is an account of results in PubChem BioAssay AID248 (DTP/NCI, 2004).

Take `CC(C)C(Br)C(=O)NCC(=O)NCC(=O)O` (centres undefined): the T/C under setting [1] was 93 % of control; the T/C under setting [2] is 94 % of control; the T/C (dose: 400.0 mg/kg/injection, schedule: Q01DX009 (ip), vehicle: saline with Tween-80) was 92 % of control.

As for `Cc1cc(NC(=O)Nc2ccc(F)cc2)no1`, the T/C by setting is: under setting [3], 100 % of control; (dose: 100.0 mg/kg/injection, schedule: Q01DX009 (ip), vehicle: carboxymethylcellulose (CMC)) 97 % of control and 105 % of control; (dose: 100.0 mg/kg/injection, schedule: Q04DX002 (ip), vehicle: carboxymethylcellulose (CMC)) 104 % of control; under setting [4], 97 % of control; (dose: 200.0 mg/kg/injection, schedule: Q01DX009 (ip), vehicle: carboxymethylcellulose (CMC)) 97 % of control; (dose: 200.0 mg/kg/injection, schedule: Q04DX002 (ip), vehicle: carboxymethylcellulose (CMC)) 92 % of control and 102 % of control. For the same molecule, the T/C reads like this: under setting [5], 101 % of control; (dose: 400.0 mg/kg/injection, schedule: Q01DX009 (ip), vehicle: carboxymethylcellulose (CMC)) 94 % of control and 95 % of control; (dose: 400.0 mg/kg/injection, schedule: Q04DX002 (ip), vehicle: carboxymethylcellulose (CMC)) 92 % of control and 94 % of control.

For the molecule `Cc1ccnc(NS(=O)(=O)c2ccc(N=NC3SC(=S)NC3=O)cc2)n1` (centres undefined), the T/C (dose: 75.0 mg/kg/injection, schedule: Q01DX001 (ip), vehicle: saline) is 100 % of control; the T/C (dose: 150.0 mg/kg/injection, schedule: Q01DX001 (ip), vehicle: saline) is 101 % of control; the T/C (dose: 300.0 mg/kg/injection, schedule: Q01DX001 (ip), vehicle: saline) is 98 % of control.

On to `O=[N+]([O-])c1ccc(Cl)cc1/C=N\N=C1c2ccccc2-c2ccccc21`, for which the T/C runs as follows: (dose: 150.0 mg/kg/injection, schedule: Q01DX001 (ip), vehicle: other) 94 % of control; (dose: 300.0 mg/kg/injection, schedule: Q01DX001 (ip), vehicle: other) 100 % of control.

On to `O=C1CN(CO)C(=O)CN1CO`, for which the T/C was 105 % of control (dose: 44.0 mg/kg/injection, schedule: Q01DX009 (ip), vehicle: saline); 99 % of control (dose: 66.0 mg/kg/injection, schedule: Q01DX009 (ip), vehicle: saline); 108 % of control (dose: 150.0 mg/kg/injection, schedule: Q01DX009 (ip), vehicle: saline); 105 % of control under setting [6]; 106 % of control under setting [7].

As for `CC(C)(C)c1ccc(C(C)(C)C)c(O)c1`, the T/C runs as follows: (dose: 25.0 mg/kg/injection, schedule: Q04DX002 (ip), vehicle: Klucel (hydroxypropylcellulose) (HPC)) 92 % of control and 90 % of control; (dose: 50.0 mg/kg/injection, schedule: Q04DX002 (ip), vehicle: Klucel (hydroxypropylcellulose) (HPC)) 95 % of control and 96 % of control; (dose: 100.0 mg/kg/injection, schedule: Q04DX002 (ip), vehicle: Klucel (hydroxypropylcellulose) (HPC)) 92 % of control and 104 % of control; (dose: 200.0 mg/kg/injection, schedule: Q04DX002 (ip), vehicle: Klucel (hydroxypropylcellulose) (HPC)) 92 % of control and 86 % of control.

With `CCCCCCCCN(CCCCCCCC)CC(=O)c1ccc2cc(Br)c3ccccc3c2c1`, the T/C was 101 % of control (dose: 100.0 mg/kg/injection, schedule: Q01DX001 (ip), vehicle: alcohol); 100 % of control (dose: 200.0 mg/kg/injection, schedule: Q01DX001 (ip), vehicle: alcohol); 103 % of control (dose: 400.0 mg/kg/injection, schedule: Q01DX001 (ip), vehicle: alcohol).

Turning to `CN(C)CC(=O)N/N=C\c1ccc([N+](=O)[O-])s1`, the T/C was 91 % of control (dose: 100.0 mg/kg/injection, schedule: Q04DX003 (ip), vehicle: saline) and 93 % of control (dose: 200.0 mg/kg/injection, schedule: Q04DX003 (ip), vehicle: saline).

Take `O=C(O)COc1ccccc1O`: the T/C is 101 % of control under setting [1] and 101 % of control under setting [2].

As to `CCCNC(c1ccccc1)=[N+]1C(C)CCCC1C` (centres undefined), the T/C runs as follows: under setting [8], 101 % of control; under setting [9], 109 % of control.

On to `CC(C)Oc1ccc(C(=O)NS(=O)(=O)c2ccc(N)cc2)cc1`, for which the T/C runs as follows: under setting [10], 101 % of control; under setting [11], 91 % of control; under setting [12], 101 % of control; under setting [6], 103 % of control; under setting [13], 100 % of control; under setting [7], 100 % of control.

In the case of `NC(=O)C(O)C(O)C(O)C(O)CCl` (centres undefined), the T/C was 96 % of control (dose: 50.0 mg/kg/injection, schedule: Q04DX002 (ip), vehicle: saline with Tween-80); 93 % of control (dose: 100.0 mg/kg/injection, schedule: Q04DX002 (ip), vehicle: saline with Tween-80); 98 % of control (dose: 200.0 mg/kg/injection, schedule: Q04DX002 (ip), vehicle: saline with Tween-80); 96 % of control (dose: 400.0 mg/kg/injection, schedule: Q04DX002 (ip), vehicle: saline with Tween-80).

On to `OCC1OC(n2cnc3c2ncn2ccnc32)C(O)C1O` (centres undefined), for which the T/C reads like this: (dose: 6.25 mg/kg/injection, schedule: Q03HX024 (ip), vehicle: saline) 98 % of control; (dose: 12.5 mg/kg/injection, schedule: Q03HX024 (ip), vehicle: saline) 93 % of control; under setting [8], 93 % of control; (dose: 25.0 mg/kg/injection, schedule: Q03HX024 (ip), vehicle: saline) 95 % of control; under setting [9], 97 % of control; (dose: 50.0 mg/kg/injection, schedule: Q03HX024 (ip), vehicle: saline) 92 % of control. For the same molecule, the T/C was 179 % of control (dose: 50.0 mg/kg/injection, schedule: Q04DX002 (ip), vehicle: saline); 101 % of control (dose: 100.0 mg/kg/injection, schedule: Q01DX005 (ip), vehicle: saline); 107 % of control under setting [11]; 87 % of control (dose: 100.0 mg/kg/injection, schedule: Q03HX024 (ip), vehicle: saline); 107 % of control (dose: 200.0 mg/kg/injection, schedule: Q01DX005 (ip), vehicle: saline); 89 % of control under setting [6]. Also, the T/C (dose: 200.0 mg/kg/injection, schedule: Q03HX024 (ip), vehicle: saline) is 88 % of control and the T/C under setting [7] was 104 % of control.

Take `CC(C)CN(C)N=Nc1ccccc1C(=O)NN`: the T/C (dose: 50.0 mg/kg/injection, schedule: Q01DX009 (ip), vehicle: saline with Tween-80) was 100 % of control; the T/C (dose: 50.0 mg/kg/injection, schedule: Q04DX003 (ip), vehicle: saline with Tween-80) is 98 % of control; the T/C under setting [1] was 98 % of control; the T/C (dose: 100.0 mg/kg/injection, schedule: Q04DX003 (ip), vehicle: saline with Tween-80) was 98 % of control; the T/C under setting [2] was 121 % of control; the T/C (dose: 200.0 mg/kg/injection, schedule: Q04DX003 (ip), vehicle: saline with Tween-80) is 103 % of control.

In the case of `CCS(=O)(=O)c1ccc(NC(=O)OCc2ccccc2)cc1`, the T/C was 94 % of control under setting [3], 94 % of control under setting [4] and 92 % of control under setting [5].

In the case of `c1ccc(COc2ccnc(SCc3ccccc3)n2)cc1`, the T/C is 90 % of control (dose: 100.0 mg/kg/injection, schedule: Q01DX001 (ip), vehicle: Klucel (hydroxypropylcellulose) (HPC)); 95 % of control (dose: 100.0 mg/kg/injection, schedule: Q01DX009 (ip), vehicle: Klucel (hydroxypropylcellulose) (HPC)); 95 % of control (dose: 200.0 mg/kg/injection, schedule: Q01DX001 (ip), vehicle: Klucel (hydroxypropylcellulose) (HPC)); 93 % of control (dose: 200.0 mg/kg/injection, schedule: Q01DX009 (ip), vehicle: Klucel (hydroxypropylcellulose) (HPC)); 100 % of control (dose: 400.0 mg/kg/injection, schedule: Q01DX001 (ip), vehicle: Klucel (hydroxypropylcellulose) (HPC)).

In the case of `Cc1ccc(C(=O)C(=O)c2ccccc2)c(C)c1`, the T/C runs as follows: under setting [10], 107 % of control; under setting [12], 102 % of control; under setting [13], 96 % of control.

`COC(=O)CC(c1ccc(Cl)cc1)N1CCCCC1` (centres undefined): the T/C reads like this: under setting [10], 98 % of control; under setting [12], 102 % of control; under setting [13], 96 % of control.
